Experimental data reported in patent US11999727B2 (Tango Therapeutics, Inc., priority 2020, dated 2024).

Experiments:
PRMT5 [1] = target: T1, PRMT5 (Homo sapiens, UniProt O14744); experiment: PRMT5 biochemical IC50 assay with SAM as cofactor; conditions: PRMT5, SAM as cofactor; read-out: SAM IC50
T1 construct: purchased Viva (custom protein)

[2] = test system: HAP1 MTAP-deleted cell line; experiment: Viability assay, MTAP-deleted cell line; type: cell-based; conditions: Homo sapiens, HAP1, viability assay, MTAP-deleted cell line; read-out: HAP1 MTAP deleted viability
From the text: Table 1 additionally indicates IC50 values in a viability assay for the MTAP-deleted cell line (column 10), indicating the effect of treatment with compound on cell survival.

[3] = test system: HAP1 MTAP-intact cell line; experiment: SDMA in-cell western assay, HAP1 MTAP-intact; type: cell-based; conditions: Homo sapiens, HAP1, SDMA in-cell western, HAP1 MTAP-intact; read-out: MTAP HAP1 intact IC50
Summary of the method: (§1)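 Isogenic HAP1 pair: the MTAP-intact line expresses endogenous MTAP, and the deleted line is MTAP-null. Symmetric dimethylarginine was detected by in-cell western and IC50 values derived for each line.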

PRMT5 [4] = target: T1, PRMT5; experiment: PRMT5 biochemical IC50 assay with MTA as cofactor; conditions: PRMT5, MTA as cofactor; read-out: MTA IC50
PRMT5 [5] = target: T1, PRMT5; experiment: PRMT5 biochemical IC50 assay with no cofactor; conditions: PRMT5, no cofactor; read-out: No Cofactor/rel IC50
From the text: Table 1 indicates IC50 values (μM) against PRMT5 for exemplary compounds in the presence of SAM as cofactor, with no cofactor, and with MTA as cofactor, respectively (columns 4-6). […] Ki values can be calculated from the IC50 values as described in the Examples section. As detailed in the Examples section, for the assay performed in the presence of SAM, IC50=Ki×1.5 (Ki=IC50/1.5).

[6] = test system: HAP1 MTAP-deleted cell line; experiment: SDMA in-cell western assay, HAP1 MTAP-deleted; type: cell-based; conditions: for IC50: Homo sapiens, HAP1, SDMA in-cell western, HAP1 MTAP-deleted, read-out: HAP1 MTAP deleted IC50; for MTAP intact/deleted ratio: IC50 ratio HAP1 MTAP-intact / HAP1 MTAP-deleted, SDMA in-cell western
Summary of the method: as §1

T1 sequence (O14744 whole entry): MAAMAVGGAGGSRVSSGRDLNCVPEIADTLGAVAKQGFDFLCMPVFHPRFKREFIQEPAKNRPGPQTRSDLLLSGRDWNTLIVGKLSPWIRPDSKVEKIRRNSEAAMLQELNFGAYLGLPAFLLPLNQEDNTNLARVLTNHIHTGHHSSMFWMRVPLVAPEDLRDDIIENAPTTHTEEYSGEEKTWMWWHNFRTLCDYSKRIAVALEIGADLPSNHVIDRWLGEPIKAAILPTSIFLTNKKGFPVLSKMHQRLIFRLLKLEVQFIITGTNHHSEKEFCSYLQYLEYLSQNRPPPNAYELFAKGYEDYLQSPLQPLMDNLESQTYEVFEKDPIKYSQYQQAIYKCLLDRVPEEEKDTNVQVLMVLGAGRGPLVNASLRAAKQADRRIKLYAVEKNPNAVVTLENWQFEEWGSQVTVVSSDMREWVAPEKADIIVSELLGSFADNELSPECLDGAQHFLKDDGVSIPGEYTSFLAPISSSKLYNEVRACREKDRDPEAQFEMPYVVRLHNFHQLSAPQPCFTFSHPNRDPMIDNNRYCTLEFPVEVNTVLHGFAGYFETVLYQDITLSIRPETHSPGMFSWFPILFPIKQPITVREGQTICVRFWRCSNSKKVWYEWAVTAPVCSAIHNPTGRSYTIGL
T1 sequence (Q9BQA1 whole entry partner): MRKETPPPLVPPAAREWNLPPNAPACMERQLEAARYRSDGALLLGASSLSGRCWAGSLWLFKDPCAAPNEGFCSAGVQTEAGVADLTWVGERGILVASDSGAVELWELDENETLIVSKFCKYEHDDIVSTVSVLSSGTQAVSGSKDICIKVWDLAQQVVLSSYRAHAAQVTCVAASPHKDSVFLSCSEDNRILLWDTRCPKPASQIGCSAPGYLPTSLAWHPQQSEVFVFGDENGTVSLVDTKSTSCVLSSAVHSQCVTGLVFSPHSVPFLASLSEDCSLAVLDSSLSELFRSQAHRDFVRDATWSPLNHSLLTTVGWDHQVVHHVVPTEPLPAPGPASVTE

SMILES | IC50 (PRMT5 [1]) [nM] | IC50 [3] [nM] | IC50 (PRMT5 [4]) [nM] | IC50 (PRMT5 [5]) [nM] | IC50 [6] [nM] | IC50 [2] [nM] | MTAP intact/deleted ratio [6]
COc1ncc(NC(=O)C(=O)N2C[C@H](C)CC[C@H]2c2ccc(N)nc2)cc1C(N)=O (single isomer, unassigned) [Compound 471] | > 500 | > 1000 | > 500 | > 500 | > 1000 | > 10000 | C (an IC50 ratio of less than 3 fold)
Cc1cc(NC(=O)C(=O)N2C[C@@H](C)CC[C@@H]2c2ccc(F)c(F)c2)cnc1N (single isomer, unassigned) [Compound 472] | > 500 | > 1000 | > 500 | > 500 | > 1000 | > 10000 | C (an IC50 ratio of less than 3 fold)
C[C@@H]1CN(C(=O)C(=O)Nc2cncc(C(N)=O)c2)[C@@H](c2ccccc2)CC1(F)F (single isomer, unassigned) [Compound 473] | > 500 | > 1000 | > 500 | > 500 | > 1000 | > 10000 | C (an IC50 ratio of less than 3 fold)
C[C@@H]1CC[C@@H](c2ccc(F)c(F)c2)N(C(=O)C(=O)Nc2cncc(C(N)=O)c2)C1 (single isomer, unassigned) [Compound 474] | > 500 | > 1000 | > 500 | > 500 | > 1000 | > 10000 | C (an IC50 ratio of less than 3 fold)
C[C@H]1CC[C@H](c2ccc(F)c(F)c2)N(C(=O)C(=O)Nc2cncc(C(N)=O)c2)C1 (single isomer, unassigned) [Compound 475] | 50 to 500 | > 1000 | < 50 | 50 to 500 | 100 to 1000 | 1000 to 10000 | A (an IC50 ratio greater than or equal to 10 fold)
C[C@@H]1CC[C@@H](c2cc(F)c(F)c(F)c2)N(C(=O)C(=O)Nc2cncc(C(N)=O)c2)C1 (single isomer, unassigned) [Compound 476] | > 500 | > 1000 | > 500 | > 500 | > 1000 | > 10000 | C (an IC50 ratio of less than 3 fold)
C[C@H]1CC[C@H](c2cc(F)c(F)c(F)c2)N(C(=O)C(=O)Nc2cncc(C(N)=O)c2)C1 (single isomer, unassigned) [Compound 477] | 50 to 500 | > 1000 | < 50 | 50 to 500 | < 100 | 1000 to 10000 | A (an IC50 ratio greater than or equal to 10 fold)
Cc1cc(NC(=O)C(=O)N2C[C@H](C)CC[C@H]2c2cc(F)c(F)c(F)c2)cnc1N (single isomer, unassigned) [Compound 478] | 50 to 500 | > 1000 | < 50 | 50 to 500 | 100 to 1000 | 1000 to 10000 | A (an IC50 ratio greater than or equal to 10 fold)
C[C@@H]1CC[C@@H](c2ccccc2)N(C(=O)C(=O)Nc2cncc(C(N)=O)c2)[C@H]1C (single isomer, unassigned) [Compound 482] | 50 to 500 | > 1000 | < 50 | 50 to 500 | < 100 | < 1000 | A (an IC50 ratio greater than or equal to 10 fold)
C[C@@H]1[C@@H](C)CC[C@H](c2ccccc2)N1C(=O)C(=O)Nc1cncc(C(N)=O)c1 (single isomer, unassigned) [Compound 483] | > 500 | > 1000 | > 500 | > 500 | > 1000 | > 10000 | C (an IC50 ratio of less than 3 fold)

Second part, led by results:

IC50 (PRMT5 [1]) [nM] | IC50 [3] [nM] | IC50 (PRMT5 [4]) [nM] | IC50 (PRMT5 [5]) [nM] | IC50 [6] [nM] | SMILES | IC50 [2] [nM] | MTAP intact/deleted ratio [6]
50 to 500 | > 1000 | < 50 | 50 to 500 | < 100 | Cc1ccc([C@H]2CC[C@H](C)CN2C(=O)C(=O)Nc2cncc(C(N)=O)c2)cc1Cl (single isomer, unassigned) [Compound 484] | 1000 to 10000 | A (an IC50 ratio greater than or equal to 10 fold)
> 500 | > 1000 | > 500 | > 500 | > 1000 | Cc1ccc([C@@H]2CC[C@@H](C)CN2C(=O)C(=O)Nc2cncc(C(N)=O)c2)cc1Cl (single isomer, unassigned) [Compound 485] | > 10000 | C (an IC50 ratio of less than 3 fold)
> 500 | > 1000 | > 500 | > 500 | > 1000 | C[C@@H]1CC[C@@H](C2CCC(F)(F)CC2)N(C(=O)C(=O)Nc2cncc(C(N)=O)c2)C1 (single isomer, unassigned) [Compound 486] | > 10000 | C (an IC50 ratio of less than 3 fold)
> 500 | > 1000 | > 500 | > 500 | > 1000 | Cc1cc(NC(=O)C(=O)N2C[C@@H](C)CC[C@@H]2c2cc(F)c(F)c(F)c2)cnc1N (single isomer, unassigned) [Compound 487] | > 10000 | C (an IC50 ratio of less than 3 fold)
50 to 500 | > 1000 | < 50 | 50 to 500 | 100 to 1000 | C[C@H]1CC[C@H](c2ccc(Cl)c(Cl)c2)N(C(=O)C(=O)Nc2cncc(C(N)=O)c2)C1 (single isomer, unassigned) [Compound 488] | 1000 to 10000 | A (an IC50 ratio greater than or equal to 10 fold)
> 500 | > 1000 | > 500 | > 500 | > 1000 | C[C@@H]1CC[C@@H](c2ccc(Cl)c(Cl)c2)N(C(=O)C(=O)Nc2cncc(C(N)=O)c2)C1 (single isomer, unassigned) [Compound 489] | > 10000 | C (an IC50 ratio of less than 3 fold)
> 500 | > 1000 | > 500 | > 500 | > 1000 | C[C@@H]1CC[C@@H](c2cc(Cl)cc(Cl)c2)N(C(=O)C(=O)Nc2cncc(C(N)=O)c2)C1 (single isomer, unassigned) [Compound 490] | > 10000 | C (an IC50 ratio of less than 3 fold)
50 to 500 | > 1000 | < 50 | 50 to 500 | 100 to 1000 | C[C@H]1CC[C@H](c2cc(Cl)cc(Cl)c2)N(C(=O)C(=O)Nc2cncc(C(N)=O)c2)C1 (single isomer, unassigned) [Compound 491] | 1000 to 10000 | A (an IC50 ratio greater than or equal to 10 fold)
50 to 500 | > 1000 | < 50 | < 50 | < 100 | C[C@@H]1CC[C@@H](c2ccc(N)nc2)N(C(=O)C(=O)Nc2cncc(C(N)=O)c2)C1 (single isomer, unassigned) [Compound 492] | 1000 to 10000 | A (an IC50 ratio greater than or equal to 10 fold)
> 500 | > 1000 | > 500 | > 500 | > 1000 | C[C@H]1CC[C@H](c2ccc(N)nc2)N(C(=O)C(=O)Nc2cncc(C(N)=O)c2)C1 (single isomer, unassigned) [Compound 493] | > 10000 | C (an IC50 ratio of less than 3 fold)
50 to 500 | > 1000 | < 50 | < 50 | < 100 | Cc1cc(NC(=O)C(=O)N2C[C@H](C)CC[C@H]2c2cccc(C(F)(F)F)c2)cnc1N (single isomer, unassigned) [Compound 496] | 1000 to 10000 | A (an IC50 ratio greater than or equal to 10 fold)
50 to 500 | > 1000 | < 50 | < 50 | 100 to 1000 | Cc1cc(NC(=O)C(=O)N2C[C@H](C)CC[C@H]2c2ccc(NS(C)(=O)=O)cc2)cnc1N (single isomer, unassigned) [Compound 499] | < 1000 | A (an IC50 ratio greater than or equal to 10 fold)
> 500 | > 1000 | > 500 | > 500 | > 1000 | Cc1cc(NC(=O)C(=O)N2C[C@@H](C)CC[C@@H]2c2ccc3c(c2)CCCN3)cnc1N (single isomer, unassigned) [Compound 503] | > 10000 | C (an IC50 ratio of less than 3 fold)
